Experimental data published in US20080207614A1, “QUINAZOLINE DERIVATIVES FOR THE TREATMENT AND PREVENTION OF DIABETES AND OBESITY” (SK CHEMICALS CO., LTD., priority 2004, published 2008).

System: C2C12 muscle cells
Experiment: Analysis of glucose absorption (2-deoxyglucose) in differentiated C2C12 muscle cells
Type: cell-based
Details: test materials 10 μM, times relative to control group
Description: C2C12 muscle cells were cultured in DMEM (Dulbecco's modified Eagle's medium) containing 10% bovine calf serum. When the cell density increased to about 85 to 90%, the culture medium was replaced with 1% bovine calf serum and cell differentiation was induced for 6 days. Completely differentiated cells were cultured for 3 hours with Krebs-Ringer buffer (KRB) containing 5 mM glucose. The test materials were added at a concentration of 10 μM. 30 minutes later, 0.2 μCi 2-deoxyglucose was added. KRB was removed 20 minutes later and the cells were washed for 3 times with cold PBS. The cells were lysed with 0.5N NaOH and counted using a radioactive counter.

## CCN1CCCC1CNc1nc(-c2ccccc2)nc2ccccc12 (stereo not shown) [Compound 117, (1-Ethyl-pyrrolidino-2-ylmethyl)-(2-phenylquinazolino-4-yl)-amine]
  Glucose absorption: 1.4

## Fc1cccc(CNc2nc(-c3ccc(Cl)cc3)nc3ccccc23)c1 [Compound 267, [2-(4-Chlorophenyl)-quinazolino-4-yl]-(3-fluorobenzyl)-amine]
  Glucose absorption: 1.0

## Clc1ccc(-c2nc(NCc3ccccc3)c3ccccc3n2)cc1 [Compound 259, Benzyl-[2-(4-chlorophenyl)-quinazolino-4-yl]-amine]
  Glucose absorption: 1.4

## c1ccc(CCCCNc2nc(-c3cccnc3)nc3ccccc23)cc1 [Compound 240, (4-Phenylbutyl)-(2-pyridino-3-ylquinazolino-4-yl)-amine]
  Glucose absorption: 1.0

## c1ccc(-c2nc(NCc3cccc4ccccc34)c3ccccc3n2)cc1 [Compound 57, Naphthaleno-1-ylmethyl-(2-phenylquinazolino-4-yl)-amine]
  Glucose absorption: 1.0

## CCSc1nc(NC2CCCC2)c2ccccc2n1 [Compound 28, Cyclopentyl-(2-ethylsulfanylquinazolino-4-yl)-amine]
  Glucose absorption: 1.1

## COc1ccccc1CNc1nc(-c2ccccc2)nc2ccccc12 [Compound 91, (2-Methoxybenzyl)-(2-phenylquinazolino-4-yl)-amine]
  Glucose absorption: 1.2

## Fc1cccc(CCNc2nc(-c3ccccn3)nc3ccccc23)c1 [Compound 232, [2-(3-Fluorophenyl)-ethyl]-(2-pyridino-2-ylquinazolino-4-yl)-amine]
  Glucose absorption: 1.2

## Clc1ccc(-c2nc(NCc3ccc4c(c3)OCO4)c3ccccc3n2)cc1 [Compound 266, Benzo[1,3]dioxol-5-ylmethyl-[2-(4-chlorophenyl)-quinazolino-4-yl]-amine]
  Glucose absorption: 1.1

## c1ccc(Nc2nc(-c3ccccc3)nc3ccccc23)cc1 [Compound 69, Phenyl-(2-phenylquinazolino-4-yl)-amine]
  Glucose absorption: 1.0

## c1ccc(CCCCCNc2nc(-c3ccccc3)nc3ccccc23)cc1 [Compound 53, (5-Phenyl-pentyl)-(2-phenylquinazolino-4-yl)-amine]
  Glucose absorption: 1.2

## c1ccc(-c2nc(NCCC(c3ccccc3)c3ccccc3)c3ccccc3n2)cc1 [Compound 136, (3,3-Diphenylpropyl)-(2-phenylquinazolino-4-yl)-amine]
  Glucose absorption: 1.3

## FC(F)(F)c1cccc(CCNc2nc(-c3ccccc3)nc3ccccc23)c1 [Compound 64, (2-Phenylquinazolino-4-yl)-[2-(3-trifluoromethyl-phenyl)-ethyl]-amine]
  Glucose absorption: 1.2

## c1ccc(CCCCNc2nc(Cc3ccccc3)nc3ccccc23)cc1 [Compound 216, (2-Benzylquinazolino-4-yl)-(4-phenylbutyl)-amine]
  Glucose absorption: 2.6

## c1ccc(-c2nc(NCCc3ccccn3)c3ccccc3n2)cc1 [Compound 102, (2-Phenylquinazolino-4-yl)-(2-pyridino-2-ylethyl)-amine]
  Glucose absorption: 1.2

## CC(Nc1nc(-c2ccccc2)nc2ccccc12)c1ccccc1 (stereo not shown) [Compound 87, (1-Phenylethyl)-(2-phenylquinazolino-4-yl)-amine]
  Glucose absorption: 1.0

## CCSc1nc(NCCCc2ccccc2)c2ccccc2n1 [Compound 32, (2-Ethylsulfanylquinazoline-4-yl)-(3-phenylpropyl)-amine]
  Glucose absorption: 1.1

## CC(C)(C)c1nc(NCc2cccc3ccccc23)c2ccccc2n1 [Compound 193, (2-tert-Butylquinazolino-4-yl)-naphthaleno-1-ylmethylamine]
  Glucose absorption: 1.3

## COc1cc(OC)c(CNc2nc(Cc3ccccc3)nc3ccccc23)c(OC)c1 [Compound 335, (2-Benzylquinazolino-4-yl)-(2,4,6-trimethoxybenzyl)-amine]
  Glucose absorption: 1.1

## c1ccc(Oc2ccc(Nc3nc(-c4ccccc4)nc4ccccc34)cc2)cc1 [Compound 82, (4-Phenoxy-phenyl)-(2-phenylquinazolino-4-yl)-amine]
  Glucose absorption: 1.2

## FC(F)(F)c1cccc(CNc2nc(-c3ccncc3)nc3ccccc23)c1 [Compound 250, (2-Pyridino-4-ylquinazolino-4-yl)-(3-trifluoromethylbenzyl)-amine]
  Glucose absorption: 1.3

## Fc1cccc(CNc2nc(-c3ccccc3)nc3ccccc23)c1 [Compound 63, (3-Fluorobenzyl)-(2-phenylquinazolino-4-yl)-amine]
  Glucose absorption: 1.1

## CCCCCCCCCCCCCCCCNc1nc(-c2ccccc2)nc2ccccc12 [Compound 99, Hexadecyl-(2-phenylquinazolino-4-yl)-amine]
  Glucose absorption: 1.4

## CCSc1nc(NCc2ccccc2F)c2ccccc2n1 [Compound 39, (2-Ethylsulfanylquinazolino-4-yl)-(2-fluorobenzyl)-amine]
  Glucose absorption: 0.9

## COc1ccc(CNc2nc(-c3ccccn3)nc3ccccc23)cc1 [Compound 225, (4-Methoxybenzyl)-(2-pyridino-2-ylquinazolino-4-yl)-amine]
  Glucose absorption: 1.3

## COc1ccc(CNc2nc(-c3ccncc3)nc3ccccc23)cc1 [Compound 249, (4-Methoxybenzyl)-(2-pyridino-4-ylquinazolino-4-yl)-amine]
  Glucose absorption: 0.9

## CCCCNc1nc(SCC)nc2ccccc12 [Compound 19, Butyl-(2-ethylsulfanylquinazolino-4-yl)-amine]
  Glucose absorption: 1.4

## c1ccc(-c2nc(NCCN3CCCC3)c3ccccc3n2)cc1 [Compound 100, (2-Phenylquinazolino-4-yl)-(2-pyrrolidino-1-ylethyl)-amine]
  Glucose absorption: 1.4

## Clc1ccc(-c2nc(NCCc3ccccc3)c3ccccc3n2)cc1 [Compound 263, [2-(4-Chlorophenyl)-quinazolino-4-yl]-phenethylamine]
  Glucose absorption: 1.1

## c1ccc(CNc2nc(-c3ccccn3)nc3ccccc23)cc1 [Compound 223, Benzyl-(2-pyridino-2-ylquinazolino-4-yl)-amine]
  Glucose absorption: 1.7

## c1ccc(CNc2nc(-c3cccnc3)nc3ccccc23)cc1 [Compound 235, Benzyl-(2-pyridino-3-ylquinazolino-4-yl)-amine]
  Glucose absorption: 1.2

## C=CCNc1nc(-c2ccccc2)nc2ccccc12 [Compound 97, Allyl-(2-phenylquinazolino-4-yl)-amine]
  Glucose absorption: 1.0

## c1ccc(-c2nc(NCCN3CCNCC3)c3ccccc3n2)cc1 [Compound 160, (2-Phenylquinazolino-4-yl)-(2-piperazino-1-ylethyl)-amine]
  Glucose absorption: 2.5

## OCCNc1nc(-c2ccccn2)nc2ccccc12 [Compound 234, 2-(2-Pyridino-2-ylquinazolino-4-ylamino)-ethanol]
  Glucose absorption: 1.1

## OCCOCCNc1nc(-c2ccccn2)nc2ccccc12 [Compound 233, 2-[2-(2-Pyridino-2-ylquinazolino-4-ylamino)-ethoxy]-ethanol]
  Glucose absorption: 1.4

## COc1ccc(OC)c(CCNc2nc(-c3ccccc3)nc3ccccc23)c1 [Compound 122, [2-(2,5-Dimethoxyphenyl)-ethyl]-(2-phenylquinazolino-4-yl)-amine]
  Glucose absorption: 1.3

## OCCOCCNc1nc(-c2ccc(Cl)cc2)nc2ccccc12 [Compound 269, 2-{2-[2-(4-Chlorophenyl)-quinazolino-4-ylamino]-ethoxy}-ethanol]
  Glucose absorption: 1.2
